Source: patent US20100144626A1, “Treatment of Multi-Drug Resistant Bacterial Infections” (priority 2006, published 2010)
Values after ≈ are worked out from the molar mass of the structure shown.

Columns and labels:
[1] = in vivo; cited from earlier work
[2] = test system: Enterococcus faecalis (VRE) E8 VanA; test: MIC, agar dilution (BSAC guidelines); type: cell-based; conditions: Table 2, E. faecalis (VRE) E8 VanA, read-out: Minimum inhibitory concentration (MIC)
Protocol: (§1) In example experiments miconazole nitrate, was dissolved in methanol and econazole nitrate and clotrimazole were dissolved in DMSO and methanol respectively. Other solvents that may be used include caster oil, pyridine, DMSO and 0.9% saline. For IV administration agents may be solubilised in polyethoxylated caster oil, or cyclodextrins such as sulfobutylether7-βcyclodextrin or hydroxypropyl-β-cyclodextrin and lactic acid. Minimum inhibitory concentrations (MICs) of a range of clinical and control bacterial organisms were measured according to BSAC (British Society for Antimicrobial Chemotherapy) guidelines, described briefly as follows;
(§2) Preparation of Agar Plates and Broths
(§3) Stock solutions of each agent were prepared using the formula:
(§4) Where P=μg of active compound per mg (μg/mg) • V=volume required (mL) • C=final concentration of solution (mg/L) • W=weight of agent (mg) to be dissolved in volume V (mL)
(§5) Stock solutions were prepared at concentrations of 1000 mg/L and 100 mg/L. The appropriate amounts of each stock solution were added to separate Petri dishes give the following final concentrations (after the addition of 20 mL molten agar): 128, 64, 32, 16, 8, 4, 2, 1, 0.5, 0.25, 0.12, 0.06, 0.03, 0.015 mg/L.
(§6) Volumes (20 mL) of cooled molten IST agar (oxoid) was added to each Petri dish and mixed by swirling.
(§7) After drying, the plates were stored at 4° C. and protected from light. Plates were used on the day of preparation.
(§8) The test organisms were grown overnight in 5 mL IST broth. Using a dilution in 0.9% saline of 1:500 for Gram-negative organisms and 1:100 for Gram-positive organisms, the appropriate agar plates were inoculated using a multipoint inoculator.
(§9) Plates were incubated at 37° C. in air for 18-20 hours.
(§10) The MIC is the minimum amount of an antibiotic at which there is no visible growth of bacteria. Tiny single colonies or faint hazes were not counted as growth.

[3] = test system: Enterococcus faecium (VRE) E15 VanA ATCC 4147; test: MIC, agar dilution (BSAC guidelines); type: cell-based; conditions: Table 2, E. faecium (VRE) E15 VanA ATCC 4147, read-out: Minimum inhibitory concentration (MIC)
Protocol: as §1, §2, §3, §4, §5, §6, §7, §8, §9, §10

[4] = test system: Enterococcus faecium (VRE) E19 UAA/522 VanB; test: MIC, agar dilution (BSAC guidelines); type: cell-based; conditions: Table 2, E. faecium (VRE) E19 UAA/522 VanB, read-out: Minimum inhibitory concentration (MIC)
Protocol: as §1, §2, §3, §4, §5, §6, §7, §8, §9, §10

[5] = test system: Enterococcus faecium (VRE) NCTC 7171; test: MIC, agar dilution (BSAC guidelines); type: cell-based; conditions: Table 2, E. faecium (VRE) NCTC 7171, read-out: Minimum inhibitory concentration (MIC)
Protocol: as §1, §2, §3, §4, §5, §6, §7, §8, §9, §10

[6] = test system: Enterococcus faecium (VRE) VanR B145344C LFE; test: MIC, agar dilution (BSAC guidelines); type: cell-based; conditions: Table 2, E. faecium (VRE) VanR B145344C LFE, read-out: Minimum inhibitory concentration (MIC)
Protocol: as §1, §2, §3, §4, §5, §6, §7, §8, §9, §10

[7] = test system: Escherichia coli NCTC 10418; test: MIC, agar dilution (BSAC guidelines); type: cell-based; conditions: NCTC10418, Table 2, E. coli NCTC 10418, read-out: Minimum inhibitory concentration (MIC)
Protocol: as §1, §2, §3, §4, §5, §6, §7, §8, §9, §10

[8] = test system: Pseudomonas aeruginosa NCTC 10662; test: MIC, agar dilution (BSAC guidelines); type: cell-based; conditions: NCTC10662, Table 2, P. aeruginosa NCTC 10662, read-out: Minimum inhibitory concentration (MIC)
Protocol: as §1, §2, §3, §4, §5, §6, §7, §8, §9, §10

[9] = test system: Staphylococcus epidermidis ATCC 1228; test: MIC, agar dilution (BSAC guidelines); type: cell-based; conditions: ATCC1228, Table 2, S. epidermidis ATCC 1228, read-out: Minimum inhibitory concentration (MIC)
Protocol: as §1, §2, §3, §4, §5, §6, §7, §8, §9, §10

[10] = test system: VISA, strain USA/VISA 5827; test: MIC, agar dilution (BSAC guidelines); type: cell-based; conditions: Staphylococcus aureus, Table 2, read-out: Minimum inhibitory concentration (MIC)
Protocol: as §1, §2, §3, §4, §5, §6, §7, §8, §9, §10

[11] = test system: VISA, strain USA/VISA 5836; test: MIC, agar dilution (BSAC guidelines); type: cell-based; conditions: Staphylococcus aureus, Table 2, read-out: Minimum inhibitory concentration (MIC)
Protocol: as §1, §2, §3, §4, §5, §6, §7, §8, §9, §10

[12] = test system: VISA, strain VISA 3900 UK; test: MIC, agar dilution (BSAC guidelines); type: cell-based; conditions: Staphylococcus aureus, Table 2, read-out: Minimum inhibitory concentration (MIC)
Protocol: as §1, §2, §3, §4, §5, §6, §7, §8, §9, §10

[13] = test system: strains of Staphylococci and Enterococci with reduced susceptibility to vancomycin; test: Growth inhibition, summary of MIC testing; type: cell-based; conditions: summary in words
Protocol: as §1, §5, §8, §9, §10

Structure (SMILES) | systemic absorption [1] | topical dose recovered in the urine or faeces [1] | MIC [2] [µg/mL] | MIC [3] [µg/mL] | MIC [4] [µg/mL] | MIC [5] [µg/mL] | MIC [6] [µg/mL] | MIC [7] [µg/mL] | MIC [8] [µg/mL] | MIC [9] [µg/mL] | MIC [10] [µg/mL] | MIC [11] [µg/mL] | MIC [12] [µg/mL] | activity against strains of Staphylococci and Enterococci with reduced susceptibility to vancomycin [13]
Clc1ccc(COC(Cn2ccnc2)c2ccc(Cl)cc2Cl)cc1 (centres unmarked) [econazole nitrate] | extremely low | Less than 1% |  |  |  |  |  |  |  |  |  |  |  | 
CC(=O)N1CCN(c2ccc(OCC3COC(Cn4ccnc4)(c4ccc(Cl)cc4Cl)O3)cc2)CC1 (centres unmarked) [Ketoconazole] |  |  | > 256 | 16 (≈ 30.1 µM) | 128 (≈ 241 µM) | 128 (≈ 241 µM) | 128 (≈ 241 µM) | > 256 | > 256 | 64 (≈ 120 µM) | 64 (≈ 120 µM) | 64 (≈ 120 µM) | 64 (≈ 120 µM) | did not show this activity
c1ccc(-c2ccc(C(c3ccccc3)n3ccnc3)cc2)cc1 (centres unmarked) [Bifonazole] |  |  | > 128 | > 128 | > 128 | > 128 | > 128 | > 128 | > 128 | > 128 | > 128 | > 128 | > 128 | did not show this activity
OC(Cn1cncn1)(Cn1cncn1)c1ccc(F)cc1F [Fluconazole] |  |  | > 128 | > 128 | > 128 | > 128 | > 128 | > 128 | > 128 | > 128 | > 128 | > 128 | > 128 | did not show this activity
